The target in experiment [1] is T1, human QC (Homo sapiens, UniProt Q16769). As to conditions: Busby, W. H. J. et al. 1987; cited from earlier work.
Experiment [2] has as its target T1, human QC. Description: Inhibitor assay of glutaminyl cyclase (QC), determination of Ki-values. As to conditions: for inhibition of human QC (in words): Example 5.
Protocol: Excitation/emission wavelengths were 320/410 nm. The assay reactions were initiated by addition of glutaminyl cyclase.
Reactions were carried out at 30° C. utilizing the NOVOStar reader for microplates (BMG labtechnologies). […] Excitation/emission wavelengths were 380/460 nm. The assay reactions were initiated by addition of glutaminyl cyclase. […] The kinetic data were evaluated using GraFit sofware.
The initial velocities were evaluated and the enzymatic activity was determined from a standard curve of ammonia under assay conditions. All samples were measured at 30° C., using either the [sequence]luor Plus or the Sunrise (both from TECAN) reader for microplates. Kinetic data was evaluated using GraFit software.
For inhibitor testing, the sample composition was the same as described above, except of the putative inhibitory compound added. […] For detailed investigations of the inhibition and determination of Ki-values, influence of the inhibitor on the auxiliary enzymes was investigated first.

The source of these data is patent US7371871B2, “Inhibitors of glutaminyl cyclase” (Probiodrug AG, priority 2003, dated 2008).

T1 sequence (Q16769 29-361): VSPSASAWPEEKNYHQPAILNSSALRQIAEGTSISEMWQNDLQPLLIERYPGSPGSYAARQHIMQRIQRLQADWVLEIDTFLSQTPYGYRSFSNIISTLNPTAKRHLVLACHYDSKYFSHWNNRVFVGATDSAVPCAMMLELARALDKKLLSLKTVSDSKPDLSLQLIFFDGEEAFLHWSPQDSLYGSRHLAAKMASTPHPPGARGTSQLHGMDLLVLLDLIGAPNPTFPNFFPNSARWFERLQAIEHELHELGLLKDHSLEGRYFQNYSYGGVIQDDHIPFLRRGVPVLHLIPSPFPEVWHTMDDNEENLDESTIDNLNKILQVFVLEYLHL

Consider `c1cnc2c(c1)ccc1cccnc12` [1,10-phenanthroline], for which, in experiment [1], the “inhibition of human QC detected” value was “inhibition”. Take `Cn1cnc(CCN)c1` [1-methyl-4-(β-amino-ethyl)-imi-dazole]: in experiment [2], the “inhibition of human QC (in words)” value is recorded as “complete loss of inhibitory activity”. As for `c1ccc(-n2ccnc2)cc1` [1-phenylimidazole], the “inhibition of human QC (in words)” value in experiment [2] is “inactive”.

Broadly, the Ki is the equilibrium dissociation constant of an inhibitor or competing ligand from its target. For `CC(=O)c1ccc(NC(=S)NCCCn2ccnc2)cc1` [Example 9], the inhibition constant Ki in experiment [2] was found to be 1.79 µM. On to reduced 6-methylpterin, for which the “inhibition of human QC detected” value in experiment [1] is on record as “inhibition”.
